Data from patent US20120015957A1, “PIPERAZINYL DERIVATIVES USEFUL AS MODULATORS OF THE NEUROPEPTIDE Y2 RECEPTOR” (priority 2007, published 2012).

Key:
[1] = target: T1, NPY Y2 receptor (Homo sapiens, UniProt P49146); test: Neuropeptide Y2 pKB assay (FLIPR, KAN-Ts cells stably expressing chimeric G proteins); assay type: cell-based; settings: apparent pKB, FLIPR calcium, KAN-Ts cells with chimeric G proteins; modified Cheng-Prusoff correction
T1 construct: endogenous in cells; host or cells: KAN-Ts cells (membrane preparation)
T1 sequence (P49146 1-381): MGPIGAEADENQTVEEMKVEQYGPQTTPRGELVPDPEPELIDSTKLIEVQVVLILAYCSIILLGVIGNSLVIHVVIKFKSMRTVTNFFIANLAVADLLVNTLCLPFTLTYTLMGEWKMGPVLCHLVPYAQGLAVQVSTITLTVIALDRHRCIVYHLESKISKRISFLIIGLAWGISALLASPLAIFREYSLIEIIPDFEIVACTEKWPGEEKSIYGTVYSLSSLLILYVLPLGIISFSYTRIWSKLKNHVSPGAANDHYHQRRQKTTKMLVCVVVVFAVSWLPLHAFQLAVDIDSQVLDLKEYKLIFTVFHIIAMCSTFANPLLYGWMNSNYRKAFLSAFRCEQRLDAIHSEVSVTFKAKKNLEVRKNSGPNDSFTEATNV
Protocol: The assay was performed using the fluorimetric imaging plate reader (FLIPR) format as described in Dautzenberg, F. M., Biochemical Pharmacology 2005, 69, 1493.
KAN-Ts cells stably expressing chimeric G proteins were seeded at a density of 100,000 cells into poly-d-lysine coated 384-well blackwall, clear-bottom microtiter plates (Corning, N.Y.). One day later, the medium was removed and 50 μl loading medium DMEM high glucose, without serum, supplemented with 10 mM HEPES-acid, 0.1% BSA, 5 mM probenecid and 2 μM Fluo-3AM was added. Cells were loaded for 1 h at 37° C., washed twice with 50 μl assay buffer (5 mM HEPES-acid, 140 mM NaCl, 1 mM MgCl2, 5 mM KCl, 10 mM glucose) and then 30 μl assay buffer was added. Cells were further pre-incubated at room temperature before adding agonists or agonists plus antagonists in 20 μl assay buffer and then measured on a T-channel fluorometric imaging plate reader (FLIPR, Molecular Devices, Sunnyvale, Calif.). Antagonistic potency values were converted to apparent pKB values using a modified Cheng-Prusoff correction. Apparent pKB was calculated as pKB=−log IC50/1+[conc agonist/EC50].

[2] = target: T1, NPY Y2 receptor; test: Neuropeptide Y2 radioligand binding assay ([125I]PYY, KAN-Ts cell membranes); settings: membranes of KAN-Ts cells endogenously expressing Y2 receptors; [125I]PYY 80 pM; 1 h at rt; read-out: IC50 (μM), NPY Y2 binding
Summary of the method: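 Membranes from KAN-Ts cells (endogenous Y2) incubated 1 h at rt with 80 pM [125I]PYY ± compound in HEPES/NaCl binding buffer, then filtered and counted. Nonspecific binding defined with […]. IC50 from sigmoidal fits; apparent K = IC50/(1+C/KD).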

| Compound | Kb [1] | IC50 [2] |
| --- | --- | --- |
| CCN(CC)C(=O)C(c1ccccc1)N1CCN(c2ccc(-c3noc(C(C)C)n3)cc2F)CC1 (stereo not shown) [Compound 69, N,N-Diethyl-2-{4-[2-fluoro-4-(5-isopropyl-[1,2,4]oxadiazol-3-yl)-phenyl]-piperazin-1-yl}-2-phenyl-acetamide] | 50.1 nM | 0.13 µM |
| CCN(CC)C(=O)C(c1ccccc1)N1CCN(c2ccc(-c3nc(C(C)C)no3)cc2C#N)CC1 (stereo not shown) [Compound 218, 2-{4-[2-Cyano-4-(3-isopropyl-[1,2,4]oxadiazol-5-yl)-phenyl]-piperazin-1-yl}-N,N-diethyl-2-phenyl-acetamide] | 12.6 nM | 0.011 µM |
| CCN(CC)C(=O)C(c1ccccc1)N1CCN(c2ccc(-c3nc(C)no3)cc2F)CC1 (stereo not shown) [Compound 119, N,N-Diethyl-2-{4-[2-fluoro-4-(3-methyl-[1,2,4]oxadiazol-5-yl)-phenyl]-piperazin-1-yl}-2-phenyl-acetamide] | 89.1 nM | 0.085 µM |
| CCN(CC)C(=O)C(c1ccccc1)N1CCN(c2ccc(-c3noc(C4CC4)n3)cc2F)CC1 (stereo not shown) [Compound 88, 2-{4-[4-(5-Cyclopropyl-[1,2,4]oxadiazol-3-yl)-2-fluoro-phenyl}-piperazin-1-yl]-N,N-diethyl-2-phenyl-acetamide] |  | 0.27 µM |
| CCN(CC)C(=O)C(c1ccccc1)N1CCN(c2ccc(-c3nnc(C)o3)cc2F)CC1 (stereo not shown) [Compound 150, N,N-Diethyl-2-{4-[2-fluoro-4-(5-methyl-[1,3,4]oxadiazol-2-yl)-phenyl]-piperazin-1-yl}-2-phenyl-acetamide] |  | 0.42 µM |
| CCN(CC)C(=O)C(c1ccccc1)N1CCN(c2ccc(-c3noc(C)n3)cc2F)CC1 (stereo not shown) [Compound 67, N,N-Diethyl-2-{4-[2-fluoro-4-(5-methyl-[1,2,4]oxadiazol-3-yl)-phenyl]-piperazin-1-yl}-2-phenyl-acetamide] | 200 nM | 0.18 µM |
| CCN(CC)C(=O)C(c1ccccc1)N1CCN(c2ccc(-c3cccn3C(=O)OC(C)(C)C)cc2F)CC1 (stereo not shown) [Compound 187, 2-{4-[4-(Diethylcarbamoyl-phenyl-methyl)-piperazin-1-yl]-3-fluoro-phenyl}-pyrrole-1-carboxylic acid tert-butyl ester] |  | 5 µM |
| CCN(CC)C(=O)C(c1ccccc1)N1CCN(c2ccc(-c3nc(C(C)C)no3)cc2F)CC1 (stereo not shown) [Compound 80, N,N-Diethyl-2-{4-[2-fluoro-4-(3-isopropyl-[1,2,4]oxadiazol-5-yl)-phenyl]-piperazin-1-yl}-2-phenyl-acetamide] |  | 0.041 µM |
| CCc1nnc(-c2ccc(N3CCN(C(C(=O)N(CC)CC)c4ccccc4)CC3)c(F)c2)o1 (stereo not shown) [Compound 152, N,N-Diethyl-2-{4-[4-(5-ethyl-[1,3,4]oxadiazol-2-yl)-2-fluoro-phenyl]-piperazin-1-yl}-2-phenyl-acetamide] |  | 0.3 µM |
| CCOC(=O)C(c1ccccc1)N1CCN(c2ccc(-c3nc(C)no3)cc2F)CC1 (stereo not shown) [Compound 192, {4-[2-Fluoro-4-(3-methyl-[1,2,4]oxadiazol-5-yl)-phenyl]-piperazin-1-yl}-phenyl-acetic acid ethyl ester] |  | 0.38 µM |

Other lines, results leading:

| Kb [1] | IC50 [2] | Compound |
| --- | --- | --- |
| 23.4 nM | 0.023 µM | CCN(CC)C(=O)C(c1ccccc1)N1CCN(c2ccc(-c3nc(C)no3)cc2C#N)CC1 (stereo not shown) [Compound 217, 2-{4-[2-Cyano-4-(3-methyl-[1,2,4]oxadiazol-5-yl)-phenyl]-piperazin-1-yl}-N,N-diethyl-2-phenyl-acetamide] |
| 20 nM | 0.035 µM | CCN(CC)C(=O)C(c1cccc(F)c1)N1CCN(c2ccc(-c3nc(C)no3)cc2C#N)CC1 (stereo not shown) [Compound 263, 2-{4-[2-Cyano-4-(3-methyl-[1,2,4]oxadiazol-5-yl)-phenyl]-piperazin-1-yl}-N,N-diethyl-2-(3-fluoro-phenyl)-acetamide] |
| 200 nM | 0.15 µM | CCN(CC)C(=O)C(c1ccccc1)N1CCN(c2ccc(-c3nc(C)no3)cc2Br)CC1 (stereo not shown) [Compound 203, 2-{4-[2-Bromo-4-(3-methyl-[1,2,4]oxadiazol-5-yl)-phenyl]-piperazin-1-yl}-N,N-diethyl-2-phenyl-acetamide] |
|  | 0.77 µM | CCN(CC)C(=O)C(c1ccccc1)N1CCN(c2ccc(-c3ccc(C)cc3)cc2F)CC1 (stereo not shown) [Compound 204, N,N-Diethyl-2-[4-(3-fluoro-4′-methyl-biphenyl-4-yl)-piperazin-1-yl]-2-phenyl-acetamide] |
|  | 0.49 µM | CCN(CC)C(=O)C(c1ccccc1OC)N1CCN(c2ccc(-c3nc(C)no3)cc2C#N)CC1 (stereo not shown) [Compound 251, 2-{4-[2-Cyano-4-(3-methyl-[1,2,4]oxadiazol-5-yl)-phenyl]-piperazin-1-yl}-N,N-diethyl-2-(2-methoxy-phenyl)-acetamide] |
|  | 1 µM | CCN(CC)C(=O)C(c1ccccc1)N1CCN(c2ccc(-c3cccnc3)cc2F)CC1 (stereo not shown) [Compound 202, N,N-Diethyl-2-[4-(2-fluoro-4-pyridin-3-yl-phenyl)-piperazin-1-yl]-2-phenyl-acetamide] |
|  | 0.66 µM | Cc1noc(-c2ccc(N3CCN(C(C(=O)OC(C)(C)C)c4ccccc4)CC3)c(F)c2)n1 (stereo not shown) [Compound 219, {4-[2-Fluoro-4-(3-methyl-[1,2,4]oxadiazol-5-yl)-phenyl]-piperazin-1-yl}-phenyl-acetic acid tert-butyl ester] |
|  | 0.34 µM | CCN(CC)C(=O)C(c1ccccc1)N1CCN(c2ccc(-c3nc(C(C)C)no3)cc2CO)CC1 (stereo not shown) [Compound 257, N,N-Diethyl-2-{4-[2-hydroxymethyl-4-(3-isopropyl-[1,2,4]oxadiazol-5-yl)-phenyl]-piperazin-1-yl}-2-phenyl-acetamide] |
